From article PMC8908507 (ACS Omega, 2022)
“Also recorded” adds a separate entry of the source.

Tests used:
MAO-B = molecular target: T1, MAO-B (Homo sapiens, UniProt P27338); assay: MAO-B inhibition, recombinant enzyme, benzylamine substrate; format: biochemical; conditions: for SI (MAO-B compared with MAO-A): IC50 (MAO-A)/IC50 (MAO-B); for IC50: IC50 MAO-B; for remaining activity at 1 µM: read-out: residual activity (%) MAO-B
T1 sequence (P27338 1-520): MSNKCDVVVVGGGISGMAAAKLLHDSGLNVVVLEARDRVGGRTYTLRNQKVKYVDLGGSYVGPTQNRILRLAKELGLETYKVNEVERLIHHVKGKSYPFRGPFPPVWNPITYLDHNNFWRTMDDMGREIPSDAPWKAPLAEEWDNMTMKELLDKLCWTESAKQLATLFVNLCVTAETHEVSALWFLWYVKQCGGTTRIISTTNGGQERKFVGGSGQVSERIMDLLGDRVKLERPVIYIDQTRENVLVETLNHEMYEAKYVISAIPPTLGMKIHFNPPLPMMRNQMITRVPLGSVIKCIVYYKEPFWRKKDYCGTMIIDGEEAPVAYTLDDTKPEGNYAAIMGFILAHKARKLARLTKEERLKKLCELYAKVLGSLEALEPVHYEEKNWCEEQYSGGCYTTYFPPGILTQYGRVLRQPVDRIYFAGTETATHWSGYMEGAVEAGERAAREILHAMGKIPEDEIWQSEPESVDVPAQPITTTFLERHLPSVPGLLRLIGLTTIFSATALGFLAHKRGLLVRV

BChE = BChE (Equus caballus, UniProt P81908); conditions: 10 μM
Chain of BChE (P81908 whole entry): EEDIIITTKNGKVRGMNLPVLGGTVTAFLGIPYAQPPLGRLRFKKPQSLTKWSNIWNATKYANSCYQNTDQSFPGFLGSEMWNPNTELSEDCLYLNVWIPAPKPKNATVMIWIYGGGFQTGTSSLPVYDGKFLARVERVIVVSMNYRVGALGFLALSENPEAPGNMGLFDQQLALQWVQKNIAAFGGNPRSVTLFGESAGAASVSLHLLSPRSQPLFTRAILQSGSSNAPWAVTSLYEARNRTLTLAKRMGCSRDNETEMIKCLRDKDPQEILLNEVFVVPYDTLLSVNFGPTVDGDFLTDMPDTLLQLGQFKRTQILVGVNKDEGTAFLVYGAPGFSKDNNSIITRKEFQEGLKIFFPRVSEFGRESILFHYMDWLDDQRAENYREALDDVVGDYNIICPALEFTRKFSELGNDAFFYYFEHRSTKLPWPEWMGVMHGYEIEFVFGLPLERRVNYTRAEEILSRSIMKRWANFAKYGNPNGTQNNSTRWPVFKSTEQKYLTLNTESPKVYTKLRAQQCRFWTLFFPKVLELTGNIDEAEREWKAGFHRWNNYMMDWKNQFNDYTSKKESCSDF

BACE1 = BACE1 (Homo sapiens, UniProt P56817); assay: biochemical; conditions: read-out: residual activity (%) BACE1
Chain of BACE1 (P56817 46-501): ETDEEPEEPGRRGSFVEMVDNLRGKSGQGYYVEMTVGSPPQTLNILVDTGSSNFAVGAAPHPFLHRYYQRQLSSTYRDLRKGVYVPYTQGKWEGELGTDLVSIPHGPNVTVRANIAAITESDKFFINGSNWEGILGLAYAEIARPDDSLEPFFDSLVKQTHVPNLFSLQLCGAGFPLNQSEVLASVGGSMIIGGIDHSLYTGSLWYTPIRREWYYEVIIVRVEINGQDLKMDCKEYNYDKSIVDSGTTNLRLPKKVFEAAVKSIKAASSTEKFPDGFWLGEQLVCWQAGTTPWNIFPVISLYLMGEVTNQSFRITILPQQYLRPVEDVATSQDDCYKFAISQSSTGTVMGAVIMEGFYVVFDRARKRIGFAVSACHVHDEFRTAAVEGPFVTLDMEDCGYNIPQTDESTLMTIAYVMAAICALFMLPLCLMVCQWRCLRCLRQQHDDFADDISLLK

AChE = AChE (Electrophorus electricus, UniProt O42275); assay: AChE inhibition; conditions: 10 μM
Chain of AChE (O42275 24-633): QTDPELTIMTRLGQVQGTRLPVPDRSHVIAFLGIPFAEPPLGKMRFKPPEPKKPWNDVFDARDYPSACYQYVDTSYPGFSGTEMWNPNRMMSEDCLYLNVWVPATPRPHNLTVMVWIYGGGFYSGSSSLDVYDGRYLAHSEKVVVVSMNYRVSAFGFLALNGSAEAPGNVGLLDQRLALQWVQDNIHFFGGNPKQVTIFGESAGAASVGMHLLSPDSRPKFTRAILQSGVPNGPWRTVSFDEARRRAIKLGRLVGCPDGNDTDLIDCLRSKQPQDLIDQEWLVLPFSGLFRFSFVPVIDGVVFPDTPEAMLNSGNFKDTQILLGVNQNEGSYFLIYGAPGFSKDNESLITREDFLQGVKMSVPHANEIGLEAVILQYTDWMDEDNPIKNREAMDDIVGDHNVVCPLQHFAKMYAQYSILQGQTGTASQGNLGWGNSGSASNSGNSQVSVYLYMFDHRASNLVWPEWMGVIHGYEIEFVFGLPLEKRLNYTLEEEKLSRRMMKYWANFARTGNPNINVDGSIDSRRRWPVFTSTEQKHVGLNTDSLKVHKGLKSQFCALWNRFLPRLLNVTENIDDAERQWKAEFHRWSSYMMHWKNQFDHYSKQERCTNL

MAO-A = molecular target: T2, MAO-A (Homo sapiens, UniProt P21397); assay: biochemical; conditions: for remaining activity at 10 µM: read-out: residual activity (%) MAO-A
T2 sequence (P21397 1-527): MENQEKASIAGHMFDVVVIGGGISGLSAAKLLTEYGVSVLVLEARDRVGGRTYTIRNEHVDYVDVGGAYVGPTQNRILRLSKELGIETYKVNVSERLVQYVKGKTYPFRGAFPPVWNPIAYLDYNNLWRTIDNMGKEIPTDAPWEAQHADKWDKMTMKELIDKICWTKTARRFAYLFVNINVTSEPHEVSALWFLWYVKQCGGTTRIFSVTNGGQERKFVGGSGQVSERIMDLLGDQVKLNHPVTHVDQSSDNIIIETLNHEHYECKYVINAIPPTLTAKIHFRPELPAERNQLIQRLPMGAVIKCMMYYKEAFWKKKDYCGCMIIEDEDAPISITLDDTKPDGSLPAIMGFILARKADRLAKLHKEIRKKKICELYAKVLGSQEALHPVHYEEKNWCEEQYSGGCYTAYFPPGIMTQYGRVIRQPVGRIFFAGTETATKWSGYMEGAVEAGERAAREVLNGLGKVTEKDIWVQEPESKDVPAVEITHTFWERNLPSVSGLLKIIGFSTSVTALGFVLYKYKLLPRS

[1] = Cytotoxicity on Vero cells, MTT method; format: cell-based, African green monkey; conditions: African green monkey, Vero cells (normal kidney epithelial cell line)
Vero cells [2] = assay: Cytotoxicity on Vero cells, MTT method; format: cell-based, African green monkey; conditions: 100 μg/mL, 24 h
Vero cells [3] = assay: Intracellular ROS assay in H2O2-treated Vero cells; format: cell-based, African green monkey; conditions: 24 h drug treatment, vs H2O2-treated control

SMILES	SI (MAO-B compared with MAO-A) (MAO-B)	IC50 (MAO-B) [µM]	remaining activity at 1 µM (MAO-B) [%]	residual activity (%) BChE (BChE) [%]	remaining activity at 10 µM (BACE1) [%]	residual activity (%) AChE (AChE) [%]	IC50 (MAO-A) [µM]	remaining activity at 10 µM (MAO-A) [%]	viability at 24 h, 60 μg/mL [1] [%]	toxicity by cellular morphology, phase-contrast microscopy (Vero cells [2])	intracellular ROS scavenging (Vero cells [3])
O=C(/C=C/C=C/c1ccccc1)c1ccc(Cl)cc1 [MK1, (2E,4E)-1-(4-Chlorophenyl)-5-phenylpenta-2,4-dien-1-one]	1498.2	0.0112 ± 0.00165	2.17 ± 1.49	94.1 ± 4.72	77.1 ± 0.0087	84.0 ± 0.23	16.7 ± 0.4	83 ± 2.71			
COc1ccc(/C=C/C=C/C(=O)c2ccccc2)cc1 [MK14, (2E,4E)-5-(4-Methoxyphenyl)-1-phenylpenta-2,4-dien-1-one]	3871.5	0.00489 ± 0.00017	-0.95	89.0 ± 1.55	77.3 ± 1.23	84.7 ± 5.62	18.9 ± 1.02	61.4 ± 6.27	> 80	no signs of toxicity	significant scavenging effect of reactive oxygen species; also recorded: significant ROS scavenging effect
O=C(/C=C/C=C/c1ccc(Br)cc1)c1ccc(Br)cc1 [MK7, (2E,4E)-1,5-Bis(4-bromophenyl)penta-2,4-dien-1-one]	1400.0	0.0155 ± 6e-05	8.9 ± 0.15	99.2 ± 1.09	84.5 ± 0.91	75.8 ± 0.73	21.7 ± 2.01	85.4 ± 1.99			
COc1ccc(/C=C/C=C/C(=O)c2ccc(Br)cc2)cc1 [MK8, (2E,4E)-1-(4-Bromophenyl)-5-(4-methoxyphenyl)penta-2,4-dien-1-one]	1443.8	0.0167 ± 0.00062	7.85 ± 0.22	80.7 ± 7.70	80.9 ± 1.67	86.1 ± 5.10	24.1 ± 0.038	69.6 ± 2.03			
O=C(/C=C/C=C/c1ccc([N+](=O)[O-])cc1)c1ccc(F)cc1 [MK13, (2E,4E)-1-(4-Fluorophenyl)-5-(4-nitrophenyl)penta-2,4-dien-1-one]	5635.2	0.00424 ± 0.00013	1.95 ± 0.067	97.8 ± 1.55	76.7 ± 0.64	91.5 ± 0.80	23.7 ± 0.17	71.5 ± 8.06			
O=C(/C=C/C=C/c1ccc([N+](=O)[O-])cc1)c1ccc(Cl)cc1 [MK5, (2E,4E)-1-(4-Chlorophenyl)-5-(4-nitrophenyl)penta-2,4-dien-1-one]	4783.0	0.00402 ± 0.00013	5.81 ± 0.27	71.6 ± 1.05	73.3 ± 2.51	74.1 ± 1.42	19.2 ± 0.94	72.9 ± 0.44		no signs of toxicity	significant scavenging effect of reactive oxygen species; also recorded: significant ROS scavenging effect
O=C(/C=C/C=C/c1ccc([N+](=O)[O-])cc1)c1ccccc1 [MK15, (2E,4E)-5-(4-Nitrophenyl)-1-phenylpenta-2,4-dien-1-one]	1025.8	0.0124 ± 0.00792	-3.52	80.2 ± 1.55	89.5 ± 0.92	68.8 ± 0.80	12.7 ± 0.57	54.4 ± 5.37			
O=C(/C=C/C=C/c1ccc([N+](=O)[O-])cc1)c1ccc(Br)cc1 [MK10, (2E,4E)-1-(4-Bromophenyl)-5-(4-nitrophenyl)penta-2,4-dien-1-one]	481.0	0.0406 ± 0.00087	3.4 ± 0.14	87.9 ± 1.86	69.4 ± 1.03	84.0 ± 0.73	19.5 ± 0.59	69.1 ± 1.32			
O=C(/C=C/C=C/c1ccc(F)cc1)c1ccc(Cl)cc1 [MK4, (2E,4E)-1-(4-Chlorophenyl)-5-(4-fluorophenyl)penta-2,4-dien-1-one]	1609.8	0.00967 ± 0.00047	1.61 ± 2.28	94.9 ± 7.16	72.5 ± 0.9	90.7 ± 0.57	15.6 ± 0.63	77 ± 6.2			
O=C(/C=C/C=C/c1ccc(F)cc1)c1ccc(Br)cc1 [MK9, (2E,4E)-1-(4-Bromophenyl)-5-(4-fluorophenyl)penta-2,4-dien-1-one]	1671.7	0.0135 ± 0.00106	2.6 ± 0.57	87.4 ± 6.95	65 ± 1.61	57.7 ± 0.00	22.5 ± 0.047	74.9 ± 1.29			
COc1ccc(/C=C/C=C/C(=O)c2ccc(Cl)cc2)cc1 [MK3, (2E,4E)-1-(4-Chlorophenyl)-5-(4-methoxyphenyl)penta-2,4-dien-1-one]	1290.2	0.0131 ± 0.00081	5.81 ± 0.27	83.2 ± 0.46	84.8 ± 0.53	81.4 ± 1.06	16.9 ± 0.5	73.6 ± 2.83			
O=C(/C=C/C=C/c1ccc(Br)cc1)c1ccc(Cl)cc1 [MK2, (2E,4E)-5-(4-Bromophenyl)-1-(4-chlorophenyl)penta-2,4-dien-1-one]	232.4	0.101 ± 0.00163	14.3 ± 0.43	95.4 ± 2.86	81.4 ± 0.97	82.4 ± 0.98	23.5 ± 0.86	97.8 ± 0.16			
O=C(/C=C/C=C/c1ccc(Br)cc1)c1ccc(F)cc1 [MK11, (2E,4E)-5-(4-Bromophenyl)-1-(4-fluorophenyl)penta-2,4-dien-1-one]	1394.7	0.0198 ± 0.00053	3.45 ± 0.21	89.2 ± 6.58	71.4 ± 1.03	77.8 ± 2.19	27.5 ± 0.82	76.9 ± 3.02			
